Like-named read-outs stand apart in the source and are kept apart here. Peptide text beside a SMILES is read from it.

As to `CC[C@H](C)[C@H](NC(=O)[C@H](CC(C)C)NC(=O)[C@H](C)NC(=O)[C@@H]1CCCN1C(=O)[C@H](CC(C)C)NC(=O)[C@H](C)NC(=O)[C@@H](NC(=O)[C@@H](NC(=O)[C@@H](NC(=O)[C@@H](NC(=O)[C@H](CCCCN)NC(=O)[C@H](CCCCN)NC(=O)[C@H](CC(C)C)NC(=O)[C@@H](NC(=O)[C@H](CCCCN)NC(=O)[C@@H](NC(=O)[C@H](CC(C)C)NC(=O)[C@H](CC(N)=O)NC(=O)[C@H](CCCCN)NC(=O)[C@@H](NC(=O)[C@H](Cc1ccccc1)NC(=O)[C@H](CO)NC(=O)[C@H](CCCCN)NC(=O)[C@H](Cc1c[nH]c2ccccc12)NC(=O)[C@@H](N)CCCCN)[C@@H](C)CC)[C@@H](C)O)C(C)C)C(C)C)C(C)C)[C@@H](C)O)[C@@H](C)O)C(=O)N[C@@H](CO)C(=O)O` [MBI 29A2, KWKSFIKNLTKVLKKVVTTALPALIS] (H-KWKSFIKNLTKVLKKVVTTALPALIS-OH; N-terminus and C-terminus assumed), the “Peptide MI Alone” value in the assay with bacterial isolates (P. aeruginosa PA24 (Ciprofloxacin section)) worked out at 64 µg/mL; in the assay with bacterial isolates (S. aureus SA10 (Ciprofloxacin section)), 4 µg/mL; with bacterial isolates (S. aureus SA93 (Ciprofloxacin section)), 2 µg/mL.
For I L K K W P W W P W R R [MBI 11G7CN], in the assay on bacterial isolates (A. calcoaceticus 3), the “Peptide MIC + Piperacillin” value is 2 µg/mL, the “Peptide MIC Alone” value is 4 µg/mL and the “Piperacillin MIC + Peptide” value is 4 µg/mL.
As for W W R W P W W P W R R K [MBI 11A10CN], the MIC in the assay on bacteria (A. calcoaceticus AC002, agarose dilution) was 4 µg/mL; against bacteria (E. cloacae ECL007, agarose dilution) it was 64 µg/mL; against bacteria (E. coli ECO005, agarose dilution) it was 16 µg/mL; in the assay on bacteria (E. faecalis EFS001, agarose dilution), 4 µg/mL; against bacteria (E. faecalis EFS008, agarose dilution), 16 µg/mL; in the assay with bacteria (K. pneumoniae KP001, agarose dilution), 16 µg/mL. In addition, the MIC against bacteria (P. aeruginosa PA004, agarose dilution) was 64 µg/mL; with bacteria (S. aureus SA014, agarose dilution), 4 µg/mL; in the assay with bacteria (S. aureus SA093, agarose dilution), 2 µg/mL; against bacteria (S. epidermidis SE010, agarose dilution) it was 4 µg/mL; against bacteria (S. maltophilia SMA002, agarose dilution), 32 µg/mL; against bacteria (S. marcescens SMS003, agarose dilution), above 128 µg/mL.
Regarding i L K K W P W W P W R R k [MBI 11E3CN], the MIC is 16 µg/mL in the assay on bacteria (A. calcoaceticus AC001); above 128 µg/mL with bacteria (E. cloacae ECL007); 4 µg/mL in the assay with bacteria (E. coli ECO001); 8 µg/mL against bacteria (E. faecalis EFS004); 2 µg/mL against bacteria (E. faecium EFM003); above 128 µg/mL in the assay on bacteria (H. influenzae HIN002). Also, the MIC in the assay with bacteria (K. pneumoniae KP002) is 32 µg/mL; with bacteria (P. aeruginosa PA041) it was 64 µg/mL; against bacteria (P. mirabilis PM001), above 128 µg/mL; with bacteria (S. aureus SA010), 2 µg/mL; with bacteria (S. epidermidis SE002), 1 µg/mL; against bacteria (S. maltophilia SMA001), 32 µg/mL. The MIC was above 128 µg/mL against bacteria (S. marcescens SMS004), above 128 µg/mL with bacteria (S. pneumoniae SBSPN2), above 128 µg/mL against bacteria (S. pneumoniae SPN044) and 16 µg/mL with bacteria (S. pyogenes SPY002).

The values are drawn from patent US6503881B2 (priority 1996, dated 2003).
